Data published in ChEMBL document CHEMBL1629665, “Contribution of vraSR and graSR point mutations to vancomycin resistance in vancomycin-intermediate Staphylococcus aureus” (2009).
Converted amounts (≈) assume the structure as drawn. Where a SMILES comes first, the peptide text is derived from it. Bridges are numbered along the chain shown (N, C = ends). [ ]: non-standard residue; d: D form. The star is where a group is joined. Ileψ(thiazoline)Cys = CC[C@H](C)[C@H](N)C1=N[C@H](C(=O)*)CS1; dOrn = NCCC[C@@H](N)C(=O)O

Experiments:
Type in all cases: functional
[1] = system: Staphylococcus aureus; experiment: Antibacterial activity against vancomycin-susceptible Staphylococcus aureus Mu50omega after 24 hrs by Etest
[2] = system: Staphylococcus aureus; experiment: Antibacterial activity against vancomycin-intermediate Staphylococcus aureus Mu50 after 48 hrs by Etest; conditions: Mu50, 48 h
[3] = system: Staphylococcus aureus; experiment: Antibacterial activity against vancomycin-susceptible Staphylococcus aureus Mu50omega expressing vraSm mutant gene after 48 hrs by Etest
[4] = system: Staphylococcus aureus; experiment: Antibacterial activity against vancomycin-susceptible Staphylococcus aureus Mu50omega expressing vraSm, graRm mutant gene after 48 hrs by Etest
[5] = system: Staphylococcus aureus; experiment: Antibacterial activity against vancomycin-susceptible Staphylococcus aureus Mu50omega expressing vraSm, graRm mutant gene after 24 hrs by Etest
[6] = system: Staphylococcus aureus; experiment: Antibacterial activity against vancomycin-susceptible Staphylococcus aureus Mu50omega expressing vraSn mutant gene after 24 hrs by Etest
[7] = system: Staphylococcus aureus; experiment: Antibacterial activity against vancomycin-susceptible Staphylococcus aureus Mu50omega expressing vraSn mutant gene after 48 hrs by Etest
[8] = system: Staphylococcus aureus; experiment: Antibacterial activity against vancomycin-susceptible Staphylococcus aureus Mu50omega expressing vraSm mutant gene after 24 hrs by Etest
[9] = system: Staphylococcus aureus; experiment: Antibacterial activity against vancomycin-susceptible Staphylococcus aureus Mu50omega after 48 hrs by Etest
[10] = system: Staphylococcus aureus; experiment: Antibacterial activity against vancomycin-intermediate Staphylococcus aureus Mu50 after 24 hrs by Etest; conditions: Mu50, 24 h

SMILES | MIC [1] [µg/mL] | MIC [2] [µg/mL] | MIC [3] [µg/mL] | MIC [4] [µg/mL] | MIC [5] [µg/mL] | MIC [6] [µg/mL] | MIC [7] [µg/mL] | MIC [8] [µg/mL] | MIC [9] [µg/mL] | MIC [10] [µg/mL]
CO[C@@]1(NC(=O)Cc2cccs2)C(=O)N2C(C(=O)O)=C(COC(N)=O)CS[C@@H]21 [CEFOXITIN] | 32 (≈ 74.9 µM) | > 256 | > 256 | > 256 | > 256 | > 256 | > 256 | > 256 | 32 (≈ 74.9 µM) | > 256
C[C@H]1c2cccc(O)c2C(=O)C2=C(O)[C@]3(O)C(=O)C(C(N)=O)=C(O)[C@@H](N(C)C)[C@@H]3[C@@H](O)[C@@H]21.O [DOXYCYCLINE] | 8 | > 256 | – | – | 8 | 8 | – | 8 | > 256 | 8
CO/N=C(\C(=O)N[C@@H]1C(=O)N2C(C(=O)O)=C(CSc3nc(=O)c(O)nn3C)CS[C@H]12)c1csc(N)n1 [CEFTRIAXONE] | 3 (≈ 5.41 µM) | > 256 | – | – | > 256 | > 0.256 | – | > 256 | > 256 | > 256
CC[C@H](C)[C@H](N)C1=N[C@H](C(=O)N[C@@H](CC(C)C)C(=O)N[C@H](CCC(=O)O)C(=O)N[C@H](C(=O)N[C@H]2CCCCNC(=O)[C@H](CC(N)=O)NC(=O)[C@@H](CC(=O)O)NC(=O)[C@H](Cc3cnc[nH]3)NC(=O)[C@@H](Cc3ccccc3)NC(=O)[C@H]([C@@H](C)CC)NC(=O)[C@@H](CCCN)NC2=O)[C@@H](C)CC)CS1 [BACITRACIN] ({Ileψ(thiazoline)Cys}-L[dE]IK[dOrn]I[dF]H[dD]N; lactam 4-C) | 12 (≈ 8.43 µM) | > 256 | > 256 | > 256 | 256 (≈ 180 µM) | 128 (≈ 90 µM) | 256 (≈ 180 µM) | 256 (≈ 180 µM) | 24 (≈ 16.9 µM) | > 256
C[C@@H](O)[C@H]1C(=O)N2C(C(=O)O)=C(SCCNC=N)C[C@H]12 [IMIPENEM ANHYDROUS] | 0.38 (≈ 1.27 µM) | > 32 | > 32 | > 32 | > 32 | > 32 | > 32 | > 32 | 0.38 (≈ 1.27 µM) | > 32
CCC[C@@H]1C[C@@H](C(=O)N[C@@H]([C@H]2O[C@H](SC)[C@H](O)[C@@H](O)[C@H]2O)[C@H](C)Cl)N(C)C1 [CLINDAMYCIN] | > 256 | > 256 | – | – | – | – | – | – | > 256 | > 256
C[C@@H]1CN(c2c(F)c(N)c3c(=O)c(C(=O)O)cn(C4CC4)c3c2F)C[C@H](C)N1 [SPARFLOXACIN] | > 32 | > 32 | – | – | – | – | – | – | > 32 | > 32
CO/N=C(\C(=O)N[C@@H]1C(=O)N2C(C(=O)O)=CCS[C@H]12)c1csc(N)n1 [CEFTIZOXIME] | 0.38 (≈ 0.991 µM) | > 256 | > 256 | > 256 | > 256 | > 256 | > 256 | > 256 | 0.5 (≈ 1.3 µM) | > 256
C[C@H]1COc2c(N3CCN(C)CC3)c(F)cc3c(=O)c(C(=O)O)cn1c23.C[C@H]1COc2c(N3CCN(C)CC3)c(F)cc3c(=O)c(C(=O)O)cn1c23.O [LEVOFLOXACIN] | > 32 | > 32 | – | – | – | – | – | – | > 32 | > 32
CC[C@H]1OC(=O)[C@H](C)[C@@H](O[C@H]2C[C@@](C)(OC)[C@@H](O)[C@H](C)O2)[C@H](C)[C@@H](O[C@@H]2O[C@H](C)C[C@H](N(C)C)[C@H]2O)[C@](C)(OC)C[C@@H](C)C(=O)[C@H](C)[C@@H](O)[C@]1(C)O [CLARITHROMYCIN] | > 256 | > 256 | – | – | – | – | – | – | > 256 | > 256
CC(=O)NC[C@H]1CN(c2ccc(N3CCOCC3)c(F)c2)C(=O)O1 [LINEZOLID] | 0.5 (≈ 1.48 µM) | 0.5 (≈ 1.48 µM) | 0.5 (≈ 1.48 µM) | 0.5 (≈ 1.48 µM) | 0.5 (≈ 1.48 µM) | 0.5 (≈ 1.48 µM) | 0.5 (≈ 1.48 µM) | 0.5 (≈ 1.48 µM) | 0.5 (≈ 1.48 µM) | 0.5 (≈ 1.48 µM)
CC[C@H]1OC(=O)[C@H](C)[C@@H](O[C@H]2C[C@@](C)(OC)[C@@H](O)[C@H](C)O2)[C@H](C)[C@@H](O[C@@H]2O[C@H](C)C[C@H](N(C)C)[C@H]2O)[C@](C)(O)C[C@@H](C)CN(C)[C@H](C)[C@@H](O)[C@]1(C)O [AZITHROMYCIN] | > 256 | > 256 | – | – | – | – | – | – | > 256 | > 256
